Data set [1] concerns CRFK cells. The data set can be described thus: In vitro cytotoxicity MTS assay on CRFK cells. Format: cell-based, feline. The settings on record: read-out: 50% cytotoxic concentration CC50, MTS assay. A general note: Tetrazolium dyes change colour on reduction, which living cells bring about.
Data set [2] concerns FIPV. As to the kind of experiment: microbe, parasite or virus in culture. It counts as cell-based, feline infectious peritonitis virus (FIPV) strain 79-1146. The settings on record: for EC50: Alphacoronavirus 1, CRFK, 2 h, read-out: Prophylaxis treatment EC50, IPMA; for inhibition of the cytopathic effect (in words): FIPV in CRFK cells, all examined conditions. On the technique in general: Damage to the host cells serves as the signal in cytopathic effect assays.

Data set [3] can be described thus: In vitro cytotoxicity MTS assay on CRFK cells. Format: cell-based, feline. Particulars: cat, 50% cytotoxic concentration CC50, MTS assay.
For data set [4], the target named is FIPV 3CL^pro (Feline coronavirus, UniProt Q98VG9). As to the kind of experiment: FRET protease inhibition assay, FIPV 3CLpro. It counts as biochemical, feline infectious peritonitis virus (FIPV) strain 79-1146.
The subject of data set [5] is FIPV. The data set can be described thus: FIPV RNA quantification by RT-qPCR in CRFK cells. It counts as cell-based, feline infectious peritonitis virus (FIPV) strain 79-1146. Particulars: with higher concentration. On the technique in general: Quantitative PCR measures a nucleic acid by following its amplification.
Data set [6] has as its system TGEV. As to the kind of experiment: Antiviral activity against TGEV replication in SK6 cells.
The subject of data set [7] is FIPV. Particulars: CRFK cells; CPE still observed; ref Weiss and Oostrom-Ram, 1989; cited from earlier work.

A value given as a limit tells only on which side of the number the result lay.

Results on 6 molecules are retold here after article PMC7476565 (Antiviral Research, 2020).

Chain of FIPV 3CL^pro (Q98VG9 2904-3205 limits assumed): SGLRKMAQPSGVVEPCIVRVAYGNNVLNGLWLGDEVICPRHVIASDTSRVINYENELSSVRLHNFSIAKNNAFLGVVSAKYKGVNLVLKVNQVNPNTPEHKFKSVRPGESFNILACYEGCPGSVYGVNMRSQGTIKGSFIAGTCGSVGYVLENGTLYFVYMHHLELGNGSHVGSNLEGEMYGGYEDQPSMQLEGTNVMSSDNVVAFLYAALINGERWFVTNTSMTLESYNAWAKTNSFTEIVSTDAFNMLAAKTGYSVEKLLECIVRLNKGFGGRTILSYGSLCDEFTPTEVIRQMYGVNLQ

`CC(C)C[C@H](NC(=O)OCc1ccccc1)C(=O)N[C@@H](CC1CCNC1=O)C(O)S(=O)(=O)O` (stereo partly drawn) [GC376, reference compound]: the CC50 in data set [1] is over 200 µM.
Turning to `Cc1cccc(C)c1OCC(=O)N[C@@H](Cc1ccccc1)[C@@H](O)C[C@H](Cc1ccccc1)NC(=O)[C@H](C(C)C)N1CCCNC1=O` [Lopinavir, reference compound], the EC50 – broadly, the concentration at which the effect is half-maximal – in data set [2] turned out to be 33.7 ± 1.53 µM. In data set [3], this molecule displayed a CC50 of over 100 µM.
In the case of `O=C(C=Cc1ccc2ccccc2n1)c1cc(Cl)ccc1O` [NSC71097, 1-(5-chloro-2-hydroxyphenyl)-3-(2-quinolinyl)-2-propen-1-one], the inhibitory constant (Ki) (commonly a measure of affinity in units of concentration, obtained from inhibition or displacement) in data set [4] was found to be 15.2 ± 1.76 µM. In data set [2], the 50% effective concentration (EC50) worked out at 1.99 ± 0.3 µM and the “inhibition of the cytopathic effect (in words)” value is reported as “strongly inhibit”. For the same molecule, the CC50 in data set [3] is 68.5 ± 4.82 µM. For the same molecule, the “copy numbers of FIPV RNAs / FIPV replication (RT-qPCR)” value in data set [5] is listed as “reduced replication”.
In turn, `O=C(Nc1ccc(F)cc1)Oc1ccc[nH]c1=O` [NSC282187, Carbamic acid, (4-fluorophenyl)-, 1,2-dihydro-2-oxo-3-pyridinyl ester] returned an inhibitory constant (Ki) in data set [4] of 2.04 ± 0.08 µM. Besides, the half-maximal effective concentration (EC50) in data set [2] is over 200 µM. Also, the “antiviral effect in TGEV cell-based assay (in words)” value in data set [6] is “did not show an active antiviral effect”. The CC50 in data set [3] was found to be 510.7 ± 0.13 µM.
In turn, `N#CC1(C#N)C2C=CC(c3coc4cccc2c34)C1(C#N)C#N` (stereo not drawn) [NSC629301, 3,6-dihydro-3,6-ethanocyclohepta (cd) (1) benzofuran-10,10,11,11-tetracarbonitrile] had a Ki in data set [4] of 9.39 ± 0.53 µM. Also, in data set [2], the EC50 amounted to 6.11 ± 1.9 µM and the “inhibition of the cytopathic effect (in words)” value is on record as “strongly inhibit”. In addition, the CC50 in data set [1] turned out to be 23.2 ± 5.19 µM. The CC50 in data set [3] was 28.1 ± 5.19 µM. Besides, the “copy numbers of FIPV RNAs / FIPV replication (RT-qPCR)” value in data set [5] is “reduced replication”.
Consider `NC(=O)c1ncn([C@@H]2O[C@H](CO)[C@@H](O)[C@H]2O)n1` [Ribavirin, reference compound], for which, in data set [2], the 50% effective concentration (EC50) was over 200 µM. The same molecule returned a CC50 in data set [3] of over 500 µM. Moreover, the “Inhibitory dose for FIPV” value in data set [7] was 50 to 100 µg/mL.
